Measured values as given in patent publication US20120213764A1, “NOVEL METHOD FOR THE PRODUCTION OF A ANTIMICROBIAL PEPTIDE” (B.R.A.I.N. BIOTECHNOLOGY RESEARCH AND INFORMATION NETWORK AG, priority 2009, published 2012).

Legend:
[1] = system: E. coli, methicillin-resistant Staphylococcus aureus, Staphylococcus epidermidis and Candida albicans; settings: cited from earlier work
S. aureus = assay: Antimicrobial activity assay-2 with in vivo produced DCD1; assay type: cell-based; settings: ~28 μg spotted, in 40% ACN/0.06% FA, S. aureus OD578nm 0.01 on LB agar
Description: DCD1 was dissolved in 40% ACN/0.06% FA. 1. 24 μg recombinantly produced DCD1 2. 24 μg in vivo produced DCD1; 3. 10 μl 40% ACN/0.06% FA;
(§1) The antimicrobial activity of DCD1 and DCD1L peptides were tested against the following bacterial strains: Escherichia coli, Staphylococcus aureus, and Micrococcus luteus, isolated from skin. Bacterial cultures were grown to mid-exponential growth phase and bacterial concentration was estimated photometrically at 578 nm. Absorbance of 1.0 corresponded to 8.56×10^8/ml for E. coli, 1.97×10^8/ml for S. aureus. After dilution to a concentration of OD578nm 0.01 (˜10^6 CFU/ml), 100 μl of the cells were plated on LB agar. Afterwards different concentrations of the peptide dissolved in 40% ACN/0.06% FA were spotted on the plates in a total volume of 10 μl. As control 10 μl of 40% ACN/0.06% FA was used. The plates were incubated at 37° C. over night. After incubation the zone of inhibition was determined and the antimicrobial activity was calculated in dependence on the peptide concentration.
To determine the antimicrobial activity, the in vivo produced DCD1 was lyophilized and dissolved in 40% ACN/0.06% FA. For testing its activity ˜28 μg DCD1 was spotted in LB agar plates containing 100 μl S. aureus (OD578nm 0.01) (see chapter Antimicrobial activity assay—2). As control 40% ACN/0.06% FA was spotted.

[2] = system: Escherichia coli, Staphylococcus aureus, and Micrococcus luteus; assay: Antimicrobial activity assay-2, zone of inhibition on LB agar; assay type: cell-based; settings: peptide in 40% ACN/0.06% FA spotted in 10 μl on LB agar, 37° C. over night; FIG. 4 against S. aureus
Description: DCD1 was dissolved in 0.06% FA (2-5) or 40% ACN/0.06% FA (7-10). 1. 0.06% FA; 2. 5 μg DCD1; 3. 10 μg DCD1; 4. 30 μg DCD1; 5. 60 μg DCD1; 6.40% ACN/0.06% FA; 7. 5 μg DCD1; 8. 10 μg DCD1; 9. 30 μg DCD1; 10. 60 μg DCD1.
as §1

[3] = system: Escherichia coli and Staphylococcus aureus; assay: Antimicrobial activity assay-1, colony-forming units (CFU) assay; assay type: cell-based; settings: for reduction of bacteria (colony-forming units): 50-100 μg/ml peptide, 37° C. for 2-4 hours, 10 mM sodium phosphate buffer/10 mM NaCl pH 7.0
Description: Antimicrobial assays were performed using the colony-forming units (CFU) assay as previously described. The antibacterial activity of DCD-derived peptides was tested against the following bacterial strains: Escherichia coli and Staphylococcus aureus. Bacterial cultures were grown to mid-exponential growth phase and washed three times with 10 mM sodium phosphate buffer/10 mM NaCl (pH 7.0). Bacterial concentration was estimated photometrically at 600 nm. Absorbance of 1.0 corresponded to 8.56×10^8/ml for E. coli, 1.97×10^8/ml for S. aureus.
After dilution to a concentration of 10^6 CFU/ml, 10 μl of the dilutions were incubated at 37° C. for 2-4 hours with the respective peptide diluted in water in a total volume of 30 μl in 10 mM sodium phosphate buffer containing 10 mM NaCl (pH 7.0). After incubation, cells were diluted 1:100 in 10 mM sodium phosphate buffer containing 10 mM NaCl (pH 7.0) and 90 μl of the diluted bacterial suspension were plated in triplicates on blood agar. Bacterial colonies were counted after incubation for 18-24 hours at 37° C. The antimicrobial activity was calculated using [(cell survival after peptide incubation)/(cell survival in buffer without peptide)×100]. The LC90 describes the lethal concentration of the current peptide in μg/ml or M which leads to 90% reduction of colony-forming units compared to the buffer control. The assay was carried out with 50-100 μg/ml DCD1L and DCD1.

[4] = parameters: species or system human; settings: in vivo
Description: Line 1-3: DCD1L dissolved in 300 mM NaCl, 10 mM NaH2PO4, pH 4.0 and incubated on skin for 0, 2 and 4 hours; Line 4-6: DCD1L dissolved in 300 mM NaCl, 10 mM NaH2PO4, pH 6.5 and incubated on skin for 0, 2 and 4 hours; […] and incubated on skin for 0, 2 and 4 hours. As controls are the recombinantly produced DCD1 and DCD1L peptides.
(A) 2 h, (B) 4 h, (C) 19 h. A total ion count chromatogram […] is shown in black and two single ion chromatograms for m/z 785 and m/z 805 corresponding to DCD1 and DCD1L respectively are shown.
For testing in vivo processing, the DCD1L peptide was dissolved in buffers (300 mM NaCl, 10 mM NaH2PO4) varying in pH (4, 6.5, and 9) and incubated on forearm. Therefore a construction composed of cardboard containing five ceramic rings was created. This construction was fixed on forearm with tape and ceramic rings were filled with 100 μl (˜140 μg) DCD1L. Finally an elastic foil was used to surround the whole construction. The incubation on skin varied from one to four hours before removing the samples from skin. Afterwards the peptide samples were analyzed by SDS PAGE (FIG. 5) and HPLC-MS (FIGS. 6 A and B) and also further incubated at room temperature in vitro (FIG. 6 C). […] This kind of processing was also analyzed by SDS PAGE and HPLC-MS.

Substance	antimicrobial activity against several microorganisms [1]	antimicrobial activity (inhibition zone) of DCD1 produced from DCD1L on skin (S. aureus)	antimicrobial activity (zone of inhibition) [2]	reduction of bacteria (colony-forming units) [3]	conversion of DCD1L into DCD1 ([4]; pH 4)	incubation time after which processing of DCD1L to DCD1 was complete ([4]; pH 9) [h]	antimicrobial activity (inventors' finding, summary statement) ([3]; no conditions given at the place)
DCD1: 47 aa peptide, amino acids 63 to 109 of dermcidin, recombinantly produced or formed from DCD1L on skin (SSLLEKGLDGAKKAVGGLGKLGKDAVEDLESVGKGAVHDVKDVLDSV; homo sapiens)	have antimicrobial activity	is antimicrobial active	activity emanating from DCD1 was detectable	led to a reduction of diverse bacteria	–	–	–
DCD1L: 48 aa peptide, amino acids 63 to 110 of dermcidin, recombinantly produced (SSLLEKGLDGAKKAVGGLGKLGKDAVEDLESVGKGAVHDVKDVLDSVL; homo sapiens)	have antimicrobial activity	–	only activity emanating from DCD1 was detectable	only the addition of DCD1 led to a reduction of diverse bacteria	always converted into DCD1 in a pH- and time-dependent manner	16	does not have antimicrobial activity
SEQ ID NO: 4: peptide of amino acids 63 to 87 of dermcidin (SSLLEKGLDGAKKAVGGLGKLGKDA; homo sapiens)	have antimicrobial activity	–	–	–	–	–	–
SEQ ID NO: 5: peptide of amino acids 63 to 85 of dermcidin (SSLLEKGLDGAKKAVGGLGKLGK; homo sapiens)	have antimicrobial activity	–	–	–	–	–	–
